# Experimental data published in patent publication US20250032567A1, “PLANT-BASED SKIN PREPARATIONS AND USE THEREOF” (priority 2022, published 2025).
# Tested on: cannabis calli
# Assay: Elicitation of callus cultures on solid medium, cannabinoid content by HPLC
# Type: cell-based, Cannabis sativa
# Conditions: elicitors compared for inducing secondary metabolites
row,SMILES,cannabinoid production (elicitor effect)
1,N[C@@H](Cc1ccc(O)cc1)C(=O)O [tyrosine],positive results
2,NCCCC(=O)O [GABA],positive results
3,N[C@@H](Cc1ccccc1)C(=O)O [phenylalanine],positive results
4,O=C(O)c1ccccc1O [salicylic acid],positive results
5,O=P(O)(O)CCCl [ethephon],positive results
6,CC/C=C\CC1C(=O)CCC1CC(=O)OC (stereo not shown) [methyl jasmonate],positive results
7,CCCCCC(=O)O [hexanoic acid],positive results
